Laboratory results: ChEMBL document CHEMBL5303573, “Mapping human microbiome drug metabolism by gut bacteria and their genes” (Nature, 2019)

Columns and labels:
[1] = The drug is tested on Bacteroides caccae strain: ATCC43185 for biotransformation. The drug concentrations were measured before and after a 12-h incubation by liquid-chromatography-coupled mass spectrometry (LC–MS); details: 2 µM
[2] = The drug is tested on Bacteroides fragilis strain: HMW610 for biotransformation. The drug concentrations were measured before and after a 12-h incubation by liquid-chromatography-coupled mass spectrometry (LC–MS); details: 2 µM
[3] = The drug is tested on Bacteroides fragilis strain: HMW615 for biotransformation. The drug concentrations were measured before and after a 12-h incubation by liquid-chromatography-coupled mass spectrometry (LC–MS); details: 2 µM
[4] = The drug is tested on Bacteroides ovatus strain: ATCC8483 for biotransformation. The drug concentrations were measured before and after a 12-h incubation by liquid-chromatography-coupled mass spectrometry (LC–MS); details: 2 µM
[5] = The drug is tested on Bacteroides uniformis strain: ATCC8492 for biotransformation. The drug concentrations were measured before and after a 12-h incubation by liquid-chromatography-coupled mass spectrometry (LC–MS); details: 2 µM
[6] = The drug is tested on Bacteroides xylanisolvens strain: DSM18836 for biotransformation. The drug concentrations were measured before and after a 12-h incubation by liquid-chromatography-coupled mass spectrometry (LC–MS); details: 2 µM
[7] = The drug is tested on Parabacteroides merdae strain: ATCC43184 for biotransformation. The drug concentrations were measured before and after a 12-h incubation by liquid-chromatography-coupled mass spectrometry (LC–MS); details: 2 µM
[8] = The drug is tested on Blautia hansenii strain: DSM20583 for biotransformation. The drug concentrations were measured before and after a 12-h incubation by liquid-chromatography-coupled mass spectrometry (LC–MS); details: 2 µM
[9] = The drug is tested on Blautia luti strain: DSM14534 for biotransformation. The drug concentrations were measured before and after a 12-h incubation by liquid-chromatography-coupled mass spectrometry (LC–MS); assay type: ADME; design: dose 2 uM, timepoint 0 vs 12 hours; details: 2 µM
[10] = The drug is tested on Dorea formicigenerans strain: ATCC27755 for biotransformation. The drug concentrations were measured before and after a 12-h incubation by liquid-chromatography-coupled mass spectrometry (LC–MS); details: 2 µM
[11] = The drug is tested on Enterococcus faecalis strain: V583 for biotransformation. The drug concentrations were measured before and after a 12-h incubation by liquid-chromatography-coupled mass spectrometry (LC–MS); details: 2 µM
[12] = The drug is tested on Ruminococcus torques strain: ATCC27756 for biotransformation. The drug concentrations were measured before and after a 12-h incubation by liquid-chromatography-coupled mass spectrometry (LC–MS); assay type: ADME; design: dose 2 uM, timepoint 0 vs 12 hours; details: 2 µM
[13] = The drug is tested on Edwardsiella tarda strain: ATCC23685 for biotransformation. The drug concentrations were measured before and after a 12-h incubation by liquid-chromatography-coupled mass spectrometry (LC–MS); details: 2 µM
[14] = The drug is tested on Providencia rettgeri strain: DSM1131 for biotransformation. The drug concentrations were measured before and after a 12-h incubation by liquid-chromatography-coupled mass spectrometry (LC–MS); assay type: ADME; design: dose 2 uM, timepoint 0 vs 12 hours; details: 2 µM
[15] = bifidobacterium adolescentis, 12 h, 2 µM
Description: The drug is tested on Bifidobacterium adolescentis strain: ATCC 15703 for biotransformation. The drug concentrations were measured before and after a 12-h incubation by liquid-chromatography-coupled mass spectrometry (LC–MS)

[16] = bacteroides thetaiotaomicron, 12 h, 2 µM
Description: The drug is tested on Bacteroides thetaiotaomicron strain: VPI-5482 for biotransformation. The drug concentrations were measured before and after a 12-h incubation by liquid-chromatography-coupled mass spectrometry (LC–MS)

[17] = enterocloster bolteae, 12 h, 2 µM
Description: The drug is tested on Clostridium bolteae strain: ATCCBAA-613 for biotransformation. The drug concentrations were measured before and after a 12-h incubation by liquid-chromatography-coupled mass spectrometry (LC–MS)

[18] = The drug is tested on Odoribacter splanchnicus strain: fecal isolate for biotransformation. The drug concentrations were measured before and after a 12-h incubation by liquid-chromatography-coupled mass spectrometry (LC–MS); details: 2 µM
[19] = limosilactobacillus reuteri cf48-3a, 12 h, 2 µM
Description: The drug is tested on Lactobacillus reuteri CF48-3A strain: BEI HM-102 for biotransformation. The drug concentrations were measured before and after a 12-h incubation by liquid-chromatography-coupled mass spectrometry (LC–MS)

[20] = akkermansia muciniphila, 12 h, 2 µM
Description: The drug is tested on Akkermansia muciniphila strain: ATCC BAA-835 for biotransformation. The drug concentrations were measured before and after a 12-h incubation by liquid-chromatography-coupled mass spectrometry (LC–MS)

Structure (SMILES) | Bacterial Biotransformation [1] | Bacterial Biotransformation [2] | Bacterial Biotransformation [3] | Bacterial Biotransformation [4] | Bacterial Biotransformation [5] | Bacterial Biotransformation [6] | Bacterial Biotransformation [7] | Bacterial Biotransformation [8] | Bacterial Biotransformation [9] | Bacterial Biotransformation [10] | Bacterial Biotransformation [11] | Bacterial Biotransformation [12] | Bacterial Biotransformation [13] | Bacterial Biotransformation [14] | Bacterial Biotransformation [15] | Bacterial Biotransformation [16] | Bacterial Biotransformation [17] | Bacterial Biotransformation [18] | Bacterial Biotransformation [19] | Bacterial Biotransformation [20]
C#C[C@]1(OC(C)=O)CC[C@H]2[C@@H]3CCC4=C/C(=N/O)CC[C@@H]4[C@H]3CC[C@@]21CC [NORGESTIMATE] | Compound NOT metabolized | Compound NOT metabolized | Compound NOT metabolized | Compound NOT metabolized | Compound metabolized | Compound NOT metabolized | Compound NOT metabolized | Compound metabolized | Compound NOT metabolized | Compound NOT metabolized | Compound NOT metabolized | Compound NOT metabolized | Compound NOT metabolized | Compound NOT metabolized | Compound NOT metabolized | Compound NOT metabolized | Compound NOT metabolized |  |  | 
CCOC(=O)[C@H](CCc1ccccc1)N[C@@H](C)C(=O)N1CCC[C@H]1C(=O)O.O=C(O)/C=C\C(=O)O [ENALAPRIL MALEATE] | Compound NOT metabolized |  | Compound NOT metabolized | Compound NOT metabolized | Compound NOT metabolized | Compound metabolized | Compound NOT metabolized | Compound metabolized | Compound NOT metabolized | Compound NOT metabolized | Compound NOT metabolized | Compound NOT metabolized | Compound NOT metabolized | Compound NOT metabolized | Compound NOT metabolized |  | Compound NOT metabolized | Compound NOT metabolized | Compound NOT metabolized | Compound NOT metabolized
OCCN(CCO)c1nc(N2CCCCC2)c2nc(N(CCO)CCO)nc(N3CCCCC3)c2n1 [DIPYRIDAMOLE] | Compound NOT metabolized |  | Compound NOT metabolized | Compound NOT metabolized |  |  | Compound metabolized | Compound metabolized | Compound NOT metabolized | Compound NOT metabolized | Compound NOT metabolized | Compound NOT metabolized | Compound NOT metabolized | Compound NOT metabolized | Compound NOT metabolized | Compound NOT metabolized |  |  | Compound NOT metabolized | Compound NOT metabolized
COCCCC/C(=N\OCCN)c1ccc(C(F)(F)F)cc1.O=C(O)/C=C\C(=O)O [FLUVOXAMINE MALEATE] | Compound NOT metabolized |  | Compound NOT metabolized | Compound metabolized | Compound NOT metabolized | Compound NOT metabolized |  | Compound metabolized | Compound NOT metabolized | Compound NOT metabolized | Compound NOT metabolized | Compound NOT metabolized | Compound NOT metabolized | Compound NOT metabolized | Compound NOT metabolized | Compound metabolized |  |  | Compound NOT metabolized | 
OCCN1CCN(CCCN2c3ccccc3Sc3ccc(C(F)(F)F)cc32)CC1 [FLUPHENAZINE] | Compound metabolized |  | Compound NOT metabolized | Compound NOT metabolized | Compound metabolized | Compound metabolized | Compound NOT metabolized | Compound NOT metabolized | Compound NOT metabolized | Compound metabolized | Compound NOT metabolized | Compound NOT metabolized | Compound NOT metabolized | Compound NOT metabolized | Compound NOT metabolized | Compound metabolized | Compound NOT metabolized |  | Compound metabolized | Compound NOT metabolized
CC1Cc2ccccc2N1NC(=O)c1ccc(Cl)c(S(N)(=O)=O)c1 (stereo not given) [INDAPAMIDE] | Compound NOT metabolized |  | Compound NOT metabolized | Compound NOT metabolized | Compound NOT metabolized | Compound NOT metabolized | Compound NOT metabolized | Compound NOT metabolized | Compound NOT metabolized | Compound NOT metabolized | Compound NOT metabolized | Compound NOT metabolized | Compound NOT metabolized | Compound NOT metabolized | Compound NOT metabolized | Compound NOT metabolized | Compound NOT metabolized | Compound NOT metabolized |  | Compound NOT metabolized
CNCC[C@H](Oc1cccc2ccccc12)c1cccs1 [DULOXETINE] | Compound NOT metabolized |  | Compound NOT metabolized | Compound metabolized | Compound metabolized | Compound metabolized | Compound metabolized | Compound metabolized | Compound NOT metabolized | Compound NOT metabolized | Compound NOT metabolized | Compound NOT metabolized |  | Compound metabolized | Compound NOT metabolized | Compound NOT metabolized | Compound NOT metabolized |  | Compound NOT metabolized | Compound metabolized
CN1CCN(C(=O)O[C@H]2c3nccnc3C(=O)N2c2ccc(Cl)cn2)CC1 [ESZOPICLONE] | Compound NOT metabolized | Compound NOT metabolized | Compound NOT metabolized | Compound NOT metabolized | Compound NOT metabolized | Compound NOT metabolized |  | Compound NOT metabolized | Compound NOT metabolized | Compound NOT metabolized | Compound NOT metabolized | Compound NOT metabolized | Compound NOT metabolized | Compound NOT metabolized |  | Compound NOT metabolized | Compound metabolized | Compound metabolized | Compound NOT metabolized | 
